Common to all, as to test: NCI tumour cell line growth inhibition, 48 h
Assay [1] deals with HCT-15 colon.
The subject of assay [2] is HL-60(TB) leukemia.
The test system of assay [3] is HOP-62 NSCLC.
Assay [4] concerns IGROV1 ovarian.
For assay [5], the system named is NCI-H522 lung.
In assay [6] the test system is OVCAR-3 ovarian.
Assay [7] deals with SF-295 CNS.
In assay [8] the test system is SK-MEL-5 melanoma.
The test system of assay [9] is SN12C renal.
Assay [10] deals with MCF7 breast.

Each structure is given as a SMILES string.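 Exposure lasted 48 hours, with cells grown in 96-well plates and compounds tested at five concentrations. GI50 = concentration required for 50% inhibition of growth. The concentration for full growth arrest is given as TGI.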 Bounds are passed on as bounds.

Regarding `Nc1nnc(CCC(=O)Nc2cc(Cl)ccc2Cl)n1N`, the TGI in assay [1], in assay [2], in assay [3], in assay [4], in assay [5] and in assay [6] was more than 100 µM throughout. The TGI in assay [7], in [8] and in [9] was more than 100 µM in each case.

For the compound `O=C(CC(c1ccccc1)C1C(=O)NC(=S)NC1=O)c1ccc([N+](=O)[O-])cc1` (configuration not stated), the TGI in assay [1] is more than 100 µM; in assay [2], more than 100 µM; in assay [3], more than 100 µM; in assay [4] it was more than 100 µM; in [10], 37.5 µM; in [5], more than 100 µM. Further, the TGI in assay [6], in assay [7], in [8] and in assay [9] was more than 100 µM in each case.

For the compound `C[N+]1(CCC(=O)c2ccccc2)CCC2CCC(C2)C1` (configuration not stated), the TGI in assay [1], in [2], in assay [3], in assay [4], in assay [10] and in [5] was more than 100 µM throughout. Also, the TGI in assay [6], in [7], in assay [8] and in assay [9] was more than 100 µM each time.

In the case of `COC(=O)c1cc(NC(=O)c2cc(NC(=O)Cc3c[nH]c4ccccc34)cn2C)cn1C`, the TGI in [1] was more than 100 µM; in assay [2], 95.4 µM; in assay [3], more than 100 µM; in assay [10], more than 100 µM; in [6] it was more than 100 µM; in assay [7], more than 100 µM. The TGI is 63.8 µM in [8] and more than 100 µM in assay [9].

Turning to `CCOCC(=O)N(C)c1cccc2c3c(n(C)c12)CCCCC3`, the TGI in assay [1], in assay [2], in [3], in [4], in [10] and in [5] was more than 100 µM in each case. The TGI in [6], in [7], in assay [8] and in assay [9] was more than 100 µM each time.

As for `CC1C(=O)c2cc3c(cc2CCN(C)Cc2c1ccc1c2OCO1)OCO3` (configuration not stated), the GI50 in assay [1] is more than 75 µg/mL; in assay [2] it was 21.2 µg/mL; in [3], more than 75 µg/mL; in [4], more than 75 µg/mL; in assay [10], 48.5 µg/mL; in [5] it was 34.6 µg/mL. Moreover, the GI50 in assay [6] is more than 75 µg/mL; in assay [7], more than 75 µg/mL; in assay [8] it was 37.1 µg/mL; in assay [9], more than 75 µg/mL. The TGI in assay [1], in assay [2], in assay [3], in assay [4], in [10] and in assay [5] was more than 75 µg/mL in each case. The TGI in [6], in assay [7], in assay [8] and in [9] was more than 75 µg/mL in each case.

Regarding `N#Cc1ccccc1C#C/C=C\C#Cc1ccccc1N`, the GI50 in assay [1] was 3.85 µM; in assay [2] it was 4.22 µM; in [10] it was 67.9 µM; in assay [5], 2.94 µM; in [6] it was 0.165 µM; in assay [7] it was 1.28 µM. The GI50 in [8] is 3.34 µM; in assay [9], 2.41 µM. Also, the TGI in assay [2] is more than 100 µM; in assay [10], more than 100 µM; in assay [6], 2.64 µM; in assay [7], 5.01 µM; in assay [8] it was 19 µM; in [9] it was 12.5 µM.

Take `COc1ccc(-n2c3c(c4cc(O)ccc42)Cc2ccccc2C3=O)cc1`: the TGI in assay [1] is more than 100 µM; in assay [2], more than 100 µM; in [3], more than 100 µM; in assay [4], more than 100 µM; in assay [10], 79.7 µM; in assay [6], more than 100 µM. The TGI in assay [7] is 86.7 µM; in [8], more than 100 µM; in assay [9], more than 100 µM.

For the compound `Cc1ccc(OCC2=NC3S/C(=C/c4ccc([N+](=O)[O-])o4)C(=O)N3N2)cc1` (configuration not stated), the TGI in assay [1] is 7.04 µM; in assay [2], 5.34 µM; in assay [3], 33.7 µM; in assay [4], 22.5 µM; in assay [5], 4.37 µM; in assay [6], 4.12 µM. In addition, the TGI was determined as 30.4 µM in [7], 21.3 µM in assay [8] and 37 µM in assay [9].

As to `CC(=O)Nc1ccc(C(=O)NN2C(=O)C(Cl)C2c2cccc([N+](=O)[O-])c2)cc1` (configuration not stated), the TGI in assay [2], in assay [3], in assay [4], in [5], in assay [6] and in assay [7] was more than 100 µM each time. Also, the TGI in assay [8] is more than 100 µM.

For the compound `Cn1c2[n+](c3nc(N)[nH]c(=O)c31)C1OC(C2)C(O)C1O` (configuration not stated), the TGI in assay [2], in assay [3], in assay [4], in assay [5], in assay [6] and in assay [7] was more than 100 µM throughout. The TGI in [8] and in [9] was more than 100 µM in each case.

For `CCN1CCN(c2nc3ccccc3nc2C(=O)c2ccc(OC)c(OC)c2)CC1`, the TGI in assay [1] was 28.8 µM; in assay [2], more than 100 µM; in assay [3], more than 100 µM; in assay [4], 32.9 µM; in assay [10], 45.5 µM; in [5], 27.9 µM. Besides, the TGI in assay [6] is 60.6 µM; in [7], 30 µM; in assay [9], more than 100 µM.

On to `N=c1ccc2nc(N)nn(O)c-2c1`, for which the TGI in assay [1], in assay [2], in assay [3], in assay [4], in [10] and in assay [5] was more than 100 µM each time. Further, the TGI in assay [6], in assay [8] and in assay [9] was more than 100 µM in each case.
